Where two headings read alike, the source gives them in different places.
Tests used:
[1] = Cytotoxicity assay (MTS); type: cell-based, human; settings: human, FGH cells (normal fibroblasts); 72 h MTS assay, normal fibroblasts
Experimental: (§1) Then, 20 μL of the MTS reagent (CellTiter 96® AQueous One Solution Cell Proliferation Assay, Promega) was added to the wells, and the cells were incubated for 3 to 4 h at 37°C. Next, absorbance was measured at 490 nm using a spectrophotometer (SpectraMax Plus384, Molecular Devices). The percentage of unviable cells was determined in relation to the control wells, and at least two independent experiments were carried out for each test compound.

[2] = tested on: FGH; assay: Cytotoxicity assay (MTS); type: cell-based, human; settings: for cell death in FGH cells: concentrations around the IC50 values in MDA-MB-231 cells; for IC50: 72 h MTS assay, normal fibroblasts
Experimental: as §1

[3] = tested on: MDA-MB-231 cells; assay: Boyden chamber (transwell) migration assay; type: cell-based, human; settings: MDA-MB-231, transwell, 6 h, read-out: IC50 Cell migration
Experimental: Transwells containing 0.3 cm^2 inserts with 8.0 μm pore polyethylene terephthalate membranes (Corning Falcon^TM) were used to quantify cell migration. MDA-MB-231 cells were added at a density of 4 x 10^4 cells/insert in serum-free media (300 μL) in the upper chambers. In the lower chambers, 700 μL of medium supplemented with 10% FBS was added. […] The systems were incubated at 37°C for 6 h. Next, the cells inside the insert were removed with a cotton swab and the cells under the membrane were fixed with methanol and stained with toluidine blue for 5 min. Pictures of the stained membrane were taken under a 10X objective (Optiphase), and the cells were quantified using NIS Elements software (NIKON). Two independent experiments were conducted in duplicate.

[4] = tested on: MDA-MB-231; assay: Cytotoxicity assay (MTS); type: cell-based, human; settings: for IC50: 72 h MTS assay; for dead cells in MTS studies: similar concentrations as apoptosis analyses
Experimental: as §1, with “MDA-MB-231, DU-145 and FGH cell lines were plated at a concentration of 4 x 10^3 cells/well in 96-well culture plates (TPP^TM). After 24 h, 10 concentrations (100–0.16 μM) of the test compounds were added in triplicate to the wells, and the plates were incubated for 72 h at 37°C in a 5% CO2 humidified atmosphere (if necessary). Then,” for “Then,”

[5] = tested on: DU-145; assay: Cytotoxicity assay (MTS); type: cell-based, human; settings: 72 h MTS assay
Experimental: as §1, with “MDA-MB-231, DU-145 and FGH cell lines were plated at a concentration of 4 x 10^3 cells/well in 96-well culture plates (TPP^TM). After 24 h, 10 concentrations (100–0.16 μM) of the test compounds were added in triplicate to the wells, and the plates were incubated for 72 h at 37°C in a 5% CO2 humidified atmosphere (if necessary). Then,” for “Then,”

[6] = tested on: MDA-MB-231 cells; assay: Wound healing assay; type: cell-based, human; settings: 10 μM, 22 h
Experimental: To qualitatively evaluate directional cell migration, MDA-MB-231 cells were seeded at a density of 1 x 10^5 cells/well in 24-well culture plates (TPP^TM) and allowed to reach a confluent monolayer. Then, the wells were scratched using a sterile 100 μL pipette tip. The medium was removed and fresh medium without FBS was added to clean the debris. Next, the cells were incubated for 22 h at 37°C with supplemented medium (10% FBS) and different concentrations of test compounds (10 μM, 1 μM and 0.250 μM). When measuring the wound closure, the wells were photographed under a 4X objective (Optiphase) at 0 and 22 h. The images were analyzed using Image J software, and two independent experiments were conducted in triplicate.

[7] = tested on: MDA-MB-231 cells; assay: Cell-cycle analysis by flow cytometry; type: cell-based, human; settings: 48 h, 1 or 3 μM, synchronized culture
Experimental: MDA-MB-231 cells were added at a density of 5 x 10^5 cells in 25 cm^2 culture bottles (TPP^TM) with 5 mL of medium supplemented with 10% FBS. After 36 h, the media was removed, and 5 mL of fresh media without FBS was added. The bottles were then incubated for 48 h for cell-cycle synchronization. Then, the cells were treated with the test compounds (1 or 3 μM) for 48 h. Subsequently, the cells were harvested by trypsinization, and their chromatin was fixed and stained following the manufacturer’s instructions (cat. no. 340242, BD Biosciences^TM). Shortly thereafter, the cells were centrifuged at 300 rcf for 5 min and resuspended in 1 mL of buffer (sodium citrate, sucrose, and DMSO) three times. From this suspension, 1 x 10^6 cells were centrifuged at 400 rcf for 5 min, resuspended in 250 μL of solution A (trypsin in a spermine tetrahydrochloride detergent buffer) and incubated for 10 min at room temperature. Next, 200 μL of solution B (trypsin inhibitor and ribonuclease A in citrate-stabilizing buffer with spermine tetrahydrochloride) was added, and the suspension was incubated for 10 min at room temperature. Finally, 200 μL of solution C (propidium iodide (PI) and spermine tetrahydrochloride in citrate stabilizing buffer) was added, and the sample was incubated for 15 min in the refrigerator. The samples were then analyzed by flow cytometry using a BD Accuri C5 (BD Biosciences^TM) system (excitation at 488 nm and emission detected with a 585/40 nm filter).

[8] = tested on: MDA-MB-231 cells; assay: Apoptosis analysis (FITC-Annexin V/PI flow cytometry); type: cell-based, human; settings: for dead cells: 72 h after treatment; for apoptotic cells: after 24 h
Experimental: Apoptosis was measured by flow cytometry via double staining with FITC-Annexin V and PI (cat. no. 556570, BD Pharmigen^TM). Cells were prepared in the same way as described for the cell-cycle analysis, except that the cell-synchronization step was omitted in this case. After treatment with the test compounds for 24 or 72 h, the cells were harvested by trypsinization and centrifuged for 10 min at 150 rcf. The pellet was resuspended in annexin V binding buffer at a concentration of 10^6 cells/mL. Then, 100 μL of this suspension was collected and stained with 5 μL of PI and FITC-Annexin V for 15 min at room temperature in the dark. After this, 400 μL of annexin V binding buffer was added, and the samples were analyzed using a BD Accuri C5 cytometer with excitation at 488 nm and emission detected with 533/30 nm (FITC) and 670 LP nm (PI) filters.

[9] = molecular target: T1, tubulin (Sus scrofa, UniProt P02550+P02554); assay: Light-scattering-based tubulin polymerization assay; type: biochemical; settings: read-out: IC50 Tubulin assembly
T1 sequence (P02550 whole entry): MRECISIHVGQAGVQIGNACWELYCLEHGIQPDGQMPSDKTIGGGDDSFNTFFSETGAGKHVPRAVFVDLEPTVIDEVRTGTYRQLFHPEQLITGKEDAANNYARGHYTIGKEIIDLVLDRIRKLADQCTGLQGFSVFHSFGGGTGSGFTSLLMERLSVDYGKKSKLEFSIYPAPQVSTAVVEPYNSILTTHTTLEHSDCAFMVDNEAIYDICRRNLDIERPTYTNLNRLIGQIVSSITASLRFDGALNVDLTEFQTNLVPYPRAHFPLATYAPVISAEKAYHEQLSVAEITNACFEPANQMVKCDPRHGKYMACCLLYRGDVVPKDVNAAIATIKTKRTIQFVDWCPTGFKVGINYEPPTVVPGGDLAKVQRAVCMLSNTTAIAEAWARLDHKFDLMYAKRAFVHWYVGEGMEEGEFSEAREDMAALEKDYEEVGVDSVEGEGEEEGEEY
T1 sequence (P02554 whole entry): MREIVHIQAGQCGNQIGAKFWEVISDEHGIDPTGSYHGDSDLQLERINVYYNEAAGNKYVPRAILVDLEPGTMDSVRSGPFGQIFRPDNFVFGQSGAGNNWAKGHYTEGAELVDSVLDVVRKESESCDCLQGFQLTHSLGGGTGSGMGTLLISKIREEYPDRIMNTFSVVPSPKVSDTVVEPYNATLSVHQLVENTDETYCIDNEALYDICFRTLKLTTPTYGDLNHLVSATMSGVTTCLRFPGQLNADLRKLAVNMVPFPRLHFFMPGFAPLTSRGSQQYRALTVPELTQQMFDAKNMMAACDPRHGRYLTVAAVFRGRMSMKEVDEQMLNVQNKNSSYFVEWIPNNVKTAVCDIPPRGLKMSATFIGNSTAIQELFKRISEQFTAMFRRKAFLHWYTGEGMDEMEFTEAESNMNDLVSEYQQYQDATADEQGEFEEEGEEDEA
Experimental: To independently confirm the ability of the compounds to inhibit tubulin assembly, a second tubulin polymerization assay was carried out. We added 20 μL aliquots of the test compounds solubilized in 10% DMSO (in triplicate) to the wells of a 96-well culture plate (TPP^TM). Then, 180 μL of 3 mg/mL tubulin (>97% pure, HTS03, Cytoskeleton) in G-PEM buffer (80 mM PIPES, 1 mM EGTA, 2 mM GTP, 1 mM MgCl2 and glycerol 5%, pH 7,0) was added to the wells, and the absorbance at 340 nm was measured every 40 s for 1 h using a SpectraMax Plus384.

[10] = molecular target: T1, tubulin; assay: Fluorescence-based tubulin polymerization assay; type: biochemical; settings: read-out: IC50 Tubulin assembly
Experimental: Tubulin polymerization assay kit B[…] (Cytoskeleton) was used according to the manufacturer's instructions. […] The curves were normalized, and the percentage of inhibition was calculated by comparing the polymerization reaction at 25 min relative to vehicle control.

Compound | IC50 at 72 h [1] [µM] | SI (selectivity index) [2] | cell death in FGH cells [2] [%] | IC50 ([3]; Homo sapiens) [nM] | IC50 ([4]; Homo sapiens, MDA-MB-231) [nM] | dead cells in MTS studies [4] [%] | IC50 ([5]; Homo sapiens, DU-145) [nM] | inhibition of wound closure (cell migration) [6] | cells arrested in G2 [7] [%] | dead cells [8] [%] | apoptotic cells [8] [%] | IC50 [4] [nM] | IC50 [5] [nM] | IC50 [2] [µM] | IC50 [3] [nM] | IC50 [9] [µM] | IC50 [10] [µM]
O=C1CCCC2=C1[C@@H](c1cccc([N+](=O)[O-])c1)c1ccc3ccccc3c1N2 [Compound 7] | > 100 | > 100 | 20 | 294 ± 5 | 190 ± 7 | 69 | 308 ± 50 | inhibit cell migration | 49.1 | 67 | 54.2 | – | – | – | – | – | –
COc1cc2c(c(OC)c1OC)-c1ccc(OC)c(=O)cc1[C@@H](NC(C)=O)CC2 [Colchicine, colchicine, reference compound] | < 0.02 | – | – | – | – | – | – | – | 42.9 | 72 | 65 | 20 ± 10 | 25 ± 3 | – | – | – | –
O=C1CCCC2=C1C(c1cccs1)c1ccc3ccccc3c1N2 (racemic) [Compound 9] | – | – | 13 | – | – | 71 | – | inhibit cell migration | 53.6 | 75 | 54.6 | 1100 ± 200 | 1000 ± 300 | > 100 | 1345 ± 7 | 5 ± 2 | –
O=C1CCCC2=C1C(c1ccc3c(c1)OCO3)c1ccc3ccccc3c1N2 (stereo not drawn) [Compound 6] | – | – | 3 | – | – | 51 | – | inhibit cell migration | 53.6 | 55 | 69.4 | 3000 ± 1000 | 3200 ± 700 | > 100 | 1700 ± 700 | – | 13 ± 2
